This passage reports inhibition results from US6858638B2, “Substituted indazoles, compositions containing them, method of production and use” (Aventis Pharma S.A., priority 2002, dated 2005).

Common to all, as to assay type: biochemical
For one assay, the target named is T1, human FAK (Homo sapiens, UniProt Q05397).
T1 construct: The complete cDNA of human FAK; made in house; host or cells: baculovirus expression system (vector pFastBac HTc)
Description: FAK autophosphorylation inhibition, time resolved fluorescence (HTRF) assay. The conditions noted are these: 10 μM (values without asterisk); read-out: FAK % inhib at 10 μM. The procedure, abridged: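 His-tagged full-length human FAK from baculovirus (6.6 µg/ml) self-phosphorylates with 15 µM ATP in HEPES pH 7.2, MgCl2, vanadate, 1 h at 37 °C. HTRF detection (Eu-anti-phosphotyrosine / XL665-anti-His), 665/620 nm ratio; % inhibition vs untreated control, duplicate mean.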
A general note: TR-FRET usually uses a lanthanide donor and a delayed reading to cut background.

The next assay has as its target T2, human KDR enzyme (Homo sapiens, UniProt P35968).
T2 construct: The cytoplasmic domain of the human KDR enzyme; GST; made in house; host or cells: SF21 insect cells (baculovirus)
Description: KDR substrate (PLCγ) phosphorylation, scintillation assay. Conditions: 10 μM; read-out: KDR % inhib at 10 μM. The procedure, abridged: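 GST-fused human KDR cytoplasmic domain from SF21 cells (about 60% pure, 100 ng) phosphorylated 2 μg of GST-PLCγ SH2-SH3 fragment. The trigger solution held γ33P-ATP with 2 μM cold ATP, in MOPS buffer pH 7.2 with Mg2+, Mn2+, vanadate and NaF. Reactions ran 1 h at 37 °C, were stopped with EDTA and counted by scintillation; results are % inhibition versus the no-compound control.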

The next assay has as its target T3, Aurora2 kinase (Homo sapiens, UniProt O14965).
T3 construct: A complete recombinant Aurora2 enzyme; His tag (N); made in house; host or cells: E. coli
T3 sequence (O14965 1-403): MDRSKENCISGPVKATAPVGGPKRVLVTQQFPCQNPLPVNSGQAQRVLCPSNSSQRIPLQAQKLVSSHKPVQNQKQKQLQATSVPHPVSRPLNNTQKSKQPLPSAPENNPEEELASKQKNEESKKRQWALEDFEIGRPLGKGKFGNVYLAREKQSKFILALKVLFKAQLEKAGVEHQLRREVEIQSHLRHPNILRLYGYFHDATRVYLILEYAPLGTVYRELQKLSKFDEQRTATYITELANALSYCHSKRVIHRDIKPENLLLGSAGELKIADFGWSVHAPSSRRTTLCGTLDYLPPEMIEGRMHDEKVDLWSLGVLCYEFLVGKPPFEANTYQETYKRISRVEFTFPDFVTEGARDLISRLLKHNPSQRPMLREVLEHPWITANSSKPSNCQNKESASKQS
The assay can be described thus: Aurora2 kinase radioactivity scintillation assay using nickel chelate (NuMA substrate). The conditions noted are these: 10 μM; read-out: Aurora2 % inhib at 10 μM. In short, it runs like this:
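His-tagged full-length Aurora2 (0.02 μM, E. coli) phosphorylating His-tagged NuMA C-terminal fragment (0.5 μM) with 1 μM ATP plus [33P]-ATP, 30 min at 37 °C, pH 7.5 Tris buffer with MgCl2. Nickel-chelate scintillation read; percent inhibition versus no-compound control.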

In assay [1] the target is T4, human IGF1R cytoplasmic domain (Homo sapiens, UniProt P08069).
T4 construct: The human IGF1R cytoplasmic domain was cloned; made in house; host or cells: SF21 insect cells (baculovirus)
T4 sequence (P08069 960-1367 limits assumed): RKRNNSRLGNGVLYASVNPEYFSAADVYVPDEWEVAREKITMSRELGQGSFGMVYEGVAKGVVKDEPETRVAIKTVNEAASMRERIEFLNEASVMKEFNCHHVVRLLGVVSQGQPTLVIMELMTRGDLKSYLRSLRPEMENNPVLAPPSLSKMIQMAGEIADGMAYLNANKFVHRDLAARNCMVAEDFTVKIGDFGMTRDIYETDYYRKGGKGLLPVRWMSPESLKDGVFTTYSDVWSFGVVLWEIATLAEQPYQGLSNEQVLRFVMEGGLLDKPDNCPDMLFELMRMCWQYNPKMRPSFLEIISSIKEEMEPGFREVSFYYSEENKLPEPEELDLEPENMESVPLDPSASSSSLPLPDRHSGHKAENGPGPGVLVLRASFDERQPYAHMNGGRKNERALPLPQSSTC
The assay can be described thus: IGF1R autophosphorylation inhibition, time resolved fluorescence (HTRF) assay. The conditions noted are these: 10 μM; read-out: IGF1R % inhib at 10 μM. The procedure, abridged: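 GST-tagged human IGF1R cytoplasmic domain from SF21 cells incubated with compound in 50 mM Hepes pH 7.5, 5 mM MnCl2, 50 mM NaCl, […] ATP. Autophosphorylation detected by HTRF (Eu-K anti-phosphotyrosine, XL665 anti-GST) after EDTA/KF stop; percentage inhibition versus no-compound control.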

Molecules are shown by their SMILES.

T1 sequence (Q05397 whole entry): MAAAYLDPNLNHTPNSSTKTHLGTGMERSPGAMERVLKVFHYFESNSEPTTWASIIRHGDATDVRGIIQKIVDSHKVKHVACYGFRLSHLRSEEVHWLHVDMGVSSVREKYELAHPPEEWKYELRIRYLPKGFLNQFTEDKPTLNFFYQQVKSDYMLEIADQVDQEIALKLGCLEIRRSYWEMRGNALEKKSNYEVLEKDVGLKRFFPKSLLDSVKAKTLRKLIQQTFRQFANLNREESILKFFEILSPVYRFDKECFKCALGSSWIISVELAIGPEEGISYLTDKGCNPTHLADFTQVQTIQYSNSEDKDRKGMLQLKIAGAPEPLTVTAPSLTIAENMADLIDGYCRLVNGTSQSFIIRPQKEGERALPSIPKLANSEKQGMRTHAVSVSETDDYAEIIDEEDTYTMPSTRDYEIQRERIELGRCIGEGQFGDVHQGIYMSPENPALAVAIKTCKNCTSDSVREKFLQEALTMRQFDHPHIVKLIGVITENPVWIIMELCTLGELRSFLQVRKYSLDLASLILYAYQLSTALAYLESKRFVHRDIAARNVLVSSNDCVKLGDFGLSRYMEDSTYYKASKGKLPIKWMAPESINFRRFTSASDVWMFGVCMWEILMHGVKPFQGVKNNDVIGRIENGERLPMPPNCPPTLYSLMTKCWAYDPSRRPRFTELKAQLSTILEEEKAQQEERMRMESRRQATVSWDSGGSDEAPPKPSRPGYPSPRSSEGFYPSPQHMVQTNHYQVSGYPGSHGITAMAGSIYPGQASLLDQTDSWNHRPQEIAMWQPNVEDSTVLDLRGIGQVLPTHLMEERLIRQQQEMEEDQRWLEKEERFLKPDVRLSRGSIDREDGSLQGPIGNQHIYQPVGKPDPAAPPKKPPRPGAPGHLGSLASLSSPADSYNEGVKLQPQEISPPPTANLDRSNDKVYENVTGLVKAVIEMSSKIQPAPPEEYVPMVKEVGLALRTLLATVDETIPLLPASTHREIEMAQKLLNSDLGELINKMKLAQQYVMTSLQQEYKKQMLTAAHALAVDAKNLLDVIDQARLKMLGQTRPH
T2 sequence (P35968 786-1356 limits assumed): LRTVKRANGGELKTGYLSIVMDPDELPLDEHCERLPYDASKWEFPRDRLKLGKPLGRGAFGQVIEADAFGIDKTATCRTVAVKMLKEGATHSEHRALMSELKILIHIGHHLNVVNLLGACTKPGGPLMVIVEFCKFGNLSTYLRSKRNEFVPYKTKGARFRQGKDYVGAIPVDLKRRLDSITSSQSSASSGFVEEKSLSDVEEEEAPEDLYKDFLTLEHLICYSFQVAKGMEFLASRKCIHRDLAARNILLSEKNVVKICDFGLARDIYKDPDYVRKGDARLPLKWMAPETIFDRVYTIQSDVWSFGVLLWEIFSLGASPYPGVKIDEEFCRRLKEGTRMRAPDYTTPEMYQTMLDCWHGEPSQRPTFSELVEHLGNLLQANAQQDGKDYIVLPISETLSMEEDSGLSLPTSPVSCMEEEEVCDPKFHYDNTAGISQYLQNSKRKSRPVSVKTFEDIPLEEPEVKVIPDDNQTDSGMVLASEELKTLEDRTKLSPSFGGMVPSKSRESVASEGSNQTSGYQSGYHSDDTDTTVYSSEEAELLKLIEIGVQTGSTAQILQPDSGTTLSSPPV

Consider `CN(C)c1c(F)c(F)c(S(=O)(=O)Nc2ccc3[nH]nc(-c4cc5ccccc5[nH]4)c3c2)c(F)c1F` [Example 86, 4-Dimethylamino-2,3,5,6-tetrafluoro-N-[3-(1H-indol-2-yl)-1H-indazol-5-yl]benzenesulfonamide], for which the inhibition at 10 µM at human FAK came out at 40%; on human KDR enzyme it was 85%; at Aurora2 kinase, 86%; in assay [1], 53%.

With `CS(=O)(=O)c1ccccc1S(=O)(=O)Nc1ccc2[nH]nc(-c3cccc(F)c3F)c2c1` [Example 221, N-[3-(2,3-Difluorophenyl)-1H-indazol-5-yl]-2-methanesulfonyl-benzenesulfonamide], the inhibition at 10 µM at human FAK was found to be 94%; at human KDR enzyme, 60%; at Aurora2 kinase, 84%; in assay [1], 50%.

Consider `CS(=O)(=O)c1ccccc1S(=O)(=O)Nc1ccc2[nH]nc(-c3ccc(-c4ccccc4)cc3)c2c1` [Example 170, N-(3-Biphenyl-4-yl-1H-indazol-5-yl)-2-methanesulfonyl-benzenesulfonamide], for which the inhibition at 10 µM was determined as 62% on human FAK, 60% at human KDR enzyme, 69% on Aurora2 kinase and 41% in assay [1].

As to `Cc1ccccc1-c1n[nH]c2ccc(NS(=O)(=O)c3ccccc3S(C)(=O)=O)cc12` [Example 105, 2-Methylsulfonyl-N-(3-o-tolyl-1H-indazol-5-yl)benzenesulfonamide], the inhibition at 10 µM is 71% at human FAK, 28% at human KDR enzyme, 49% at Aurora2 kinase and 25% in assay [1].

In the case of `Cc1cc(-c2n[nH]c3ccc(NS(=O)(=O)c4ccccc4S(C)(=O)=O)cc23)ccc1F` [Example 222, N-[3-(4-Fluoro-3-methyl-phenyl)-1H-indazol-5-yl]-2-methanesulfonyl-benzenesulfonamide], the inhibition at 10 µM amounted to 94% at human FAK, 49% at human KDR enzyme, 92% at Aurora2 kinase and 66% in assay [1].

For the compound `CC(C)(C)c1ccc(-c2n[nH]c3ccc(NS(=O)(=O)c4ccccc4S(C)(=O)=O)cc23)cc1` [Example 197, N-[3-(4-tert-Butylphenyl)-1H-indazol-5-yl]-2-methanesulfonyl-benzenesulfonamide], the inhibition at 10 µM on human FAK was found to be 43%; at human KDR enzyme, 41%; on Aurora2 kinase, 73%; in assay [1] it was 0%.

On to `CS(=O)(=O)c1ccccc1S(=O)(=O)Nc1ccc2[nH]nc(-c3cccc(Br)c3)c2c1` [Example 184, N-[3-(3-Bromophenyl)-1H-indazol-5-yl]-2-methanesulfonyl-benzenesulfonamide], for which the inhibition at 10 µM at human FAK amounted to 96%; at human KDR enzyme, 61%; on Aurora2 kinase, 93%; in assay [1], 73%.

Consider `CC(=O)Nc1n[nH]c2ccc(NS(=O)(=O)c3ccccc3S(C)(=O)=O)cc12` [Example 43, N-[5-(2-Methylsulfonylbenzenesulfonylamino)-1H-indazol-3-yl)-acetamide], for which the inhibition at 10 µM is 83% at human FAK, 25% at human KDR enzyme, 85% at Aurora2 kinase and 96% in assay [1].

`Nc1cc(Cl)cc(Cl)c1S(=O)(=O)Nc1ccc2[nH]nc(-c3ccccc3)c2c1` [Example 159, 2-Amino-4,6-dichloro-N-(3-phenyl-1H-indazol-5-yl)-benzenesulfonamide]: the inhibition at 10 µM at human FAK turned out to be 53%; on human KDR enzyme it was 86%; at Aurora2 kinase, 77%; in assay [1], 58%.

Regarding `O=S(=O)(Nc1ccc2[nH]nc(-c3ccccc3)c2c1)c1ccccc1OC(F)(F)F` [Example 142, N-(3-Phenyl-1H-indazol-5-yl)-2-trifluoromethoxy-benzenesulfonamide], the inhibition at 10 µM at human FAK turned out to be 40%; on human KDR enzyme, 85%; at Aurora2 kinase it was 100%; in assay [1], 74%.

With `Cc1ccc(-c2n[nH]c3ccc(NS(=O)(=O)c4ccccc4S(C)(=O)=O)cc23)cc1F` [Example 224, N-[3-(3-Fluoro-4-methyl-phenyl)-1H-indazol-5-yl]-2-methanesulfonyl-benzenesulfonamide], the inhibition at 10 µM amounted to 91% at human FAK, 71% on human KDR enzyme, 92% on Aurora2 kinase and 70% in assay [1].

In the case of `CS(=O)(=O)c1ccccc1S(=O)(=O)Nc1ccc2[nH]nc(-c3ccccc3Cl)c2c1` [Example 187, N-[3-(2-Chlorophenyl)-1H-indazol-5-yl]-2-methanesulfonyl-benzenesulfonamide], the inhibition at 10 µM came out at 46% on human FAK, 49% at human KDR enzyme, 67% on Aurora2 kinase and 52% in assay [1].

In the case of `O=S(=O)(Nc1ccc2[nH]nc(-c3ccccc3)c2c1)c1cccc2ccccc12` [Example 106, N-(3-Phenyl-1H-indazol-5-yl)-naphthalene-1-sulfonamide], the inhibition at 10 µM is 43% on human FAK, 79% at human KDR enzyme, 92% at Aurora2 kinase and 90% in assay [1].

Consider `CN(C)c1cccc2c(S(=O)(=O)Nc3cccc(-c4n[nH]c5ccc(NS(=O)(=O)c6ccccc6S(C)(=O)=O)cc45)c3)cccc12` [Example 166, N-{3-[5-(2-Methanesulfonyl-benzenesulfonylamino)-1H-indazol-3-yl]phenyl}-5-dimethylaminonaphthalene-1-sulfonamide], for which the inhibition at 10 µM at human FAK was found to be 53%; on human KDR enzyme, 33%; at Aurora2 kinase, 61%; in assay [1], 20%.

Regarding `CS(=O)(=O)c1ccccc1S(=O)(=O)Nc1ccc2[nH]nc(-c3cc4cccnc4[nH]3)c2c1` [Example 57, 2-Methylsulfonyl-N-[3-(1H-pyrrolo[2,3-b]pyridin-2-yl)-1H-indazol-5-yl]benzenesulfonamide], the inhibition at 10 µM is 48% on human FAK, 22% on human KDR enzyme, 53% on Aurora2 kinase and 0% in assay [1].

`CCc1ccc(-c2n[nH]c3ccc(NS(=O)(=O)c4ccccc4S(C)(=O)=O)cc23)cc1` [Example 193, N-[3-(4-Ethylphenyl)-1H-indazol-5-yl]-2-methanesulfonyl-benzenesulfonamide]: the inhibition at 10 µM on human FAK came to 76%; on human KDR enzyme, 56%; at Aurora2 kinase, 88%; in assay [1], 65%.

As for `CS(=O)(=O)c1ccccc1S(=O)(=O)Nc1ccc2[nH]nc(-c3ccc(OCc4ccccc4)cc3)c2c1` [Example 209, N-[3-(4-Benzyloxyphenyl)-1H-indazol-5-yl]-2-methanesulfonyl-benzenesulfonamide], the inhibition at 10 µM at human FAK came to 55%; on human KDR enzyme it was 34%; on Aurora2 kinase it was 67%; in assay [1], 16%.

Consider `O=S(=O)(Nc1ccc2[nH]nc(-c3ccccc3)c2c1)c1ccc2ccccc2c1` [Example 108, N-(3-Phenyl-1H-indazol-5-yl)-naphthalene-2-sulfonamide], for which the inhibition at 10 µM at human FAK is 8%; at human KDR enzyme it was 72%; at Aurora2 kinase it was 44%; in assay [1], 78%.

As to `CS(=O)(=O)c1ccccc1S(=O)(=O)Nc1ccc2[nH]nc(C(=O)NC3CCCCC3)c2c1` [Example 29, N-Cyclohexyl-5-(2-methylsulfonylbenzenesulfonylamino)-1H-indazole-3-carboxamide], the inhibition at 10 µM on human FAK was 0%; on human KDR enzyme it was 8%; at Aurora2 kinase, 80%; in assay [1], 96%.
